Among the data in US8168642B2, “Dihydropyrimidine compounds and their uses in preparation of medicaments for treating and preventing antiviral diseases” (Beijing Molecule Science and Technology Co., Ltd., priority 2006, dated 2012) are melting point values, retold here.

Structures are written as SMILES. Where only a bound is given, the exact number is not on record here.

By melting point is commonly meant the temperature, or range, at which the solid turns liquid. With `CCOC(=O)C1=C(C)NC(c2cscn2)=NC1c1ccc(O)cc1` (stereo not shown), the melting point lay within 213 to 216 °C.
Compound `CCOC(=O)C1=C(C)NC(c2cscn2)=NC1c1cccc(Cl)c1` (stereo not shown) came in with a melting point of 105 to 108 °C.
The figure for `CCOC(=O)C1=C(C)NC(c2cscn2)=NC1c1ccccc1F` (stereo not shown) is 126 to 128 °C; for `CCOC(=O)C1=C(C)NC(c2csc(C)n2)=NC1c1ccc(F)cc1Cl` (stereo not shown) it is 123 to 125 °C; for `CCOC(=O)C1=C(C)NC(c2csc(C)n2)=NC1c1cccc(O)c1` (stereo not shown) it is 175 to 178 °C.
The figure for `CCOC(=O)C1=C(C)NC(c2csc(C)n2)=NC1c1ccc(O)cc1` (stereo not shown) is 208 to 210 °C.
For `CCOC(=O)C1=C(C)NC(c2csc(C)n2)=NC1c1cccc(Cl)c1` (stereo not shown), the melting point lay within 143 to 144 °C.
Next, `CCOC(=O)C1=C(C)N(C(C)=O)C(c2csc(C)n2)=NC1c1cccc(F)c1` (stereo not shown): 127 to 130 °C; `CCOC(=O)C1=C(C)NC(c2cscn2)=NC1c1cccc(F)c1` (stereo not shown): 118 to 120 °C.
Next, `CCOC(=O)C1=C(C)N(C(C)=O)C(c2csc(C)n2)=NC1c1ccc(F)cc1` (stereo not shown): 140 to 142 °C; `CCOC(=O)C1=C(C)N(C(C)=O)C(c2csc(C)n2)=NC1c1cccc(C)c1` (stereo not shown): 113 to 114 °C.
The figure for `CCOC(=O)C1=C(C)N(C(C)=O)C(c2csc(C)n2)=NC1c1ccc(C)cc1` (stereo not shown) is 187 to 188 °C; for `CCOC(=O)C1=C(C)N(C(C)=O)C(c2csc(C)n2)=NC1c1cccc(OC)c1` (stereo not shown) it is 114 to 116 °C.
For the compound `CCOC(=O)C1=C(C)N(C(C)=O)C(c2csc(C)n2)=NC1c1ccc(OC)cc1` (stereo not shown), the melting point is 138 to 140 °C.
Compound `CCOC(=O)C1=C(C)N(C(C)=O)C(c2csc(C)n2)=NC1c1ccccc1` (stereo not shown) yielded a melting point of 140 to 142 °C.
The figure for `CCOC(=O)C1=C(C)N(C(C)=O)C(c2csc(C)n2)=NC1c1ccc(Cl)cc1` (stereo not shown) is 169 to 171 °C.
The figure for `CCOC(=O)C1=C(C)NC(c2cscn2)=NC1c1ccc(F)cc1` (stereo not shown) is 118 to 120 °C; for `CCOC(=O)C1=C(C)NC(c2csc(N)n2)=NC1c1ccc(F)cc1Cl` (stereo not shown) it is 95 to 110 °C.
The figure for `CCOC(=O)C1=C(C)NC(c2ncsc2Cl)=NC1c1ccc(F)cc1Cl` (stereo not shown) is 149 to 152 °C; for `COC(=O)C1=C(C)NC(c2ncsc2Cl)=NC1c1ccc(F)cc1Cl` (stereo not shown) it is 98 to 100 °C; for `COC(=O)C1=C(C)NC(c2ncsc2Cl)=NC1c1ccc(F)cc1` (stereo not shown) it is 118 to 122 °C.
`CCOC(=O)C1=C(C)NC(c2cscn2)=NC1c1cccc(C)c1` (stereo not shown) yielded a melting point of 133 to 134 °C.
`CCOC(=O)C1=C(C)NC(c2cnc(C)s2)=NC1c1ccc(F)cc1Cl` (stereo not shown) returned a melting point of 107 to 111 °C.
The compound `CCOC(=O)C1=C(C)NC(c2cnc(Cl)s2)=NC1c1ccc(F)cc1Cl` (stereo not shown) registered a melting point of 159 to 162 °C.
Next, `COC(=O)C1=C(C)NC(c2cnc(Cl)s2)=NC1c1ccc(F)cc1Cl` (stereo not shown): greater than 230 °C.
Next, `COC(=O)C1=C(C)NC(c2cnc(Cl)s2)=NC1c1ccc(F)cc1` (stereo not shown): 175 to 178 °C; `CCOC(=O)C1=C(C)NC(c2ncc[nH]2)=NC1c1ccc(F)cc1Cl` (stereo not shown): 157 to 162 °C.
`CCOC(=O)C1=C(C)NC(c2nccn2Cc2ccccc2)=NC1c1ccc(F)cc1Cl` (stereo not shown): the melting point was in the range of 114 to 117 °C.
Next, `CCOC(=O)C1=C(C)NC(c2nccn2C)=NC1c1ccccc1Cl` (stereo not shown): 124 to 127 °C.
Next, `CCOC(=O)C1=C(C)NC(c2ncc[nH]2)=NC1c1ccccc1Cl` (stereo not shown): 121 to 125 °C; `CC1=C(C(=O)OC(C)C)C(c2ccc(F)cc2Cl)N=C(c2c(F)cccc2F)N1` (stereo not shown): 155 to 158 °C; `CCOC(=O)C1=C(C)NC(c2cscn2)=NC1c1cccc(OC)c1` (stereo not shown): 140 to 142 °C.
The figure for `CCOC(=O)C1=C(C)N(C(C)=O)C(c2cscn2)=NC1c1cccc(OC)c1` (stereo not shown) is 130 to 131 °C.
In the case of `CCOC(=O)C1=C(C)NC(c2cscn2)=NC1c1cccc(O)c1` (stereo not shown), the melting point lay in the range of 180 to 183 °C.
